This note sets out measurements from US20230242669A1, “ANTIBODY THAT BINDS ERBB-2 AND ERBB-3” (Merus N.V., priority 2014, published 2023).

The test system of data set [1] is SK-BR-3 and MCF-7 target cells. As to the kind of experiment: ADCC 51Cr release assay. Conditions: whole blood or PBMC effector cells. The data set is classed as cell-based, human. On the procedure: ADCC activity is an important anti-tumour mechanism of action for therapeutic antibodies in cancer. […] Trastuzumab and a negative control antibody were included as control antibodies in the experiment. Whole blood and PBMC fractions were obtained from healthy donors. Each antibody was tested against the HER2 high (SK-BR-3) and HER2 low (MCF-7) expressing target cells. Target cells were loaded with ^51Cr (Amersham) and opsonized with the indicated concentrations of antibody. Whole-blood or PBMC fraction were used as effector cells in a 200 µL reaction in RPMI 1640 + 10% heat inactivated FCS. Cells were incubated together for 4 h, and lysis was estimated by measuring radioactivity in the supernatant using a Y^- scintillator. Percentage of specific lysis was calculated as follows: (experimental cpm – basal cpm) / (maximal cpm – basal cpm) × 100, with maximal lysis determined in the presence of 5% Triton X-100 and basal lysis in the absence of antibody and effectors.
ADCC activity can be enhanced by different techniques, one of them being the removal of fucose. […] Both antibodies were applied in a serial dilution and a negative control antibody and trastuzumab were included in the assay.

In another data set the test system is BT-474 and SKBR-3 cells. As to the kind of experiment: BT-474 and SKBR-3 growth in […] with HRG (morphology, PCA). The data set is classed as cell-based, human. How it is done:
The cells were tested at the company Ocello based in Leiden, the Netherlands that grows cells in three dimensional […]® and uses principle component analysis to distinguish non-treated cells from treated cells. 2000 SK-BR-3 or 2250 BT474 cells were seeded in 15µl […]® per well of a 384 well plate (Greiner 781091 ). […] In addition a dose-dependent titration of HRG was included as a positive control. Each dose was tested in quadruplicate. Cells were incubated for 7 days in a cell culture incubator at 37° C., 5% CO2. Next, the cells were fixed and actin cytoskeleton of the cells was stained with phalloidin and the nuclei are stained with Hoechst. Next, fluorescent images were taken at different levels through the gel (Z-stack) and the images were superimposed. A broad range of morphological features were measured (800 in total). Only features that differed between medium and HRG treatments were selected for analysis. […] Both multiparameter and single parameter analyses were made. For single parameter measurements, t-tests were performed to compare treatments (HRG or antibody) to medium. P-values for each point were determined. […]
The assay was performed in […]®, as described above, and morphological features were analyzed. […]

The subject of data set [2] is HER2+, HER2++ and HER2+++ breast and gastric cancer cell lines. Nature of the data set: FACS binding to cell lines with different HER2 levels. More on the design: species or system human. Conditions: HER2++ and HER2+ cells. On the procedure: Cells were considered HER2+++ if they express millions of HER2 copies and/or are HER2 gene amplified. The following cell lines were used: MCF-7 (HER 2 +); MDA-MB-468 (HER2 +, MKN-45 (HER2 +), MDA-MB-175 (HER2+), MDA-MB-453 (HER2 ++), MDA-MB-361(HER2 ++), ZR-75-1(HER2 ++), JIMT-1 (HER2+++), BT-474 (HER2+++), SKBR-3 (HER2+++), SK-OV-3 (HER2+++), N87 (HER2+++). Cells of an exponentially grown culture were harvested by trypsin and diluted to 10^6 cells/ml in FACS buffer (PBS/0.5%BSA/0.5 mM EDTA). 1-2 10^5 cells were added to each well in a U-bottom 96 well plate. Cells were centrifuged for 2 minutes at 300 g at 4° C. Supernatant was discarded by inverting plate(s) above, followed by flicking once. 50 µl of each IgG sample was added in a serial dilution from 3.16 ng- 10 µg/ml and incubated for 1H on ice. Cells were centrifuged once, supernatant was removed and cells were washed twice with FACS buffer. 50 µl diluted 1:100 mouse anti human IgG gamma PE (INVITROGEN®) was added and incubated for 30-60 minutes on ice in the dark. […] Cells were analysed on a FACSCanto Flow cytometer in a HTS setting. The quantity of antibody bound was assessed by median fluorescence. Data were plotted and the area under the curve (AUC, a cumulative measurement of the median fluorescence intensity) was determined for each antibody per cell line tested (FIG. 26).
On the technique in general: Flow cytometry measures light scatter and fluorescence of single cells or particles in a stream.

The subject of data set [3] is human stem cell derived cardiomyocytes. As to the kind of experiment: Cardiomyocyte viability under doxorubicin stress. Conditions: 3 µM doxorubicin, 10 ng/ml HRG; monospecific antibodies 68 nM. The data set is classed as cell-based.
Experimental: Human stem cell derived cardiomyocytes (Pluriomics BV) were seeded at a concentration of 20.000 well in white flat-bottom assay plates (corning 655098). On day 5 of culture the medium was replaced for glucose and galactose free culture medium supplemented with 10 ng/ml HRG. On day 7 test antibodies were added in combination with doxorubicin (3 µM). Cell viability was assayed on day 9 using the Promega Cell titer Glo assay.

Consider “PB4188: bispecific HER2xHER3 IgG: HER2 arm MF3958, HER3 arm MF3178”, for which the ADCC activity entry in data set [1] was “effective at high antibody concentrations”. The “Activity compared to pertuzumab + trastuzumab, PB3448 and MEHD7945A” value in the data set on BT-474 and SKBR-3 cells (BT-474 and SKBR-3, in the presence of HRG) is “superior activity”. Also, the “Effect on HRG induced proliferation and branching/invasion phenotype” value in the data set on BT-474 and SKBR-3 cells (SKBR-3, 10 ng/ml HRG) is “completely revert the HRG induced phenotype”. The “Binding affinity compared to trastuzumab (AUC of median fluorescence)” value in data set [2] is given as “higher binding affinity”. The “Cardiomyocyte viability (ATP)” value in data set [3] is recorded as “unaffected”.
